{"source": "paper PMC8037569", "about": "“Neuroprotective Effect of Aurantio-Obtusin, a Putative Vasopressin V1A Receptor Antagonist, on Transient Forebrain Ischemia Mice Model” (International Journal of Molecular Sciences, 2021)", "key": {"C57BL/6 mice [1]": {"tested_on": "C57BL/6 mice", "assay": "Passive avoidance test after transient forebrain ischemia (BCCAO)", "format": "in vivo, mouse", "conditions": "10 mg/kg, p.o., once daily, 1 h to 7 days after BCCAO; for Latency time in test trial of passive avoidance test: vs BCCAO group, p < 0.05", "description": "(§1) Male C57BL/6 mice (22–26 g, 7 weeks) were purchased from the Orient Co. Ltd., a branch of Charles River Laboratories (Seoul, Korea), and kept in the University Animal Care Unit for 1 week prior to the experiments. The animals were housed five per cage, allowed access to water and food ad libitum; the environment was maintained at a constant temperature (23 ± 1 °C) and humidity (60 ± 10%) under a 12-h light/dark cycle (the lights were on from 07:30 to 19:30 h). Forty mice were divided equally into four groups (sham + vehicle, n = 10; sham + drug, n = 10; bilateral common carotid artery occluded ischemia + vehicle, n = 10; bilateral common carotid artery occluded ischemia + drug, n = 10) for experiment. The treatment and maintenance of the animals were carried out in accordance with the Animal Care and Use Guidelines of Dong-A University, Korea. All in vivo experiments were performed according to the protocols approved by the Institutional Animal Care and Use Committee of Dong-A University (approved protocol numbers: DIACUC-approved-17-20) and were in accordance with the National Institutes of Health guidelines.\nC57BL/6 mice were anesthetized with 2.0% isoflurane and 70% nitrous oxide in oxygen and subjected to transient forebrain ischemia. The transient forebrain ischemia was induced by bilateral common carotid artery occlusion (BCCAO) with aneurysm clips for 20 min, and the circulation was restored by removing the clips. Mice that received the same surgical operation without carotid artery clipping served as sham-operated controls. During the surgical procedure, the rectal temperature was maintained at 37 ± 0.5 °C with a heating pad (Biomed S.L., Barcelona, Spain). The regional cerebral blood flow (rCBF) was monitored using laser Doppler flowmetry (Perimed, PF5010, JarFalla, Sweden). […]\nPassive avoidance test was conducted 1 h after the last drug administration. […] For the retention trial, the mouse was again placed in the light compartment and the time required to enter the dark compartment was recorded."}, "h5-HT1AR": {"molecular_target": "T1, h5-HT1AR (Homo sapiens, UniProt P08908)", "T1 construct": "host or cells: Ba/F3 (murine pro-B)", "T1 sequence (P08908 1-422)": "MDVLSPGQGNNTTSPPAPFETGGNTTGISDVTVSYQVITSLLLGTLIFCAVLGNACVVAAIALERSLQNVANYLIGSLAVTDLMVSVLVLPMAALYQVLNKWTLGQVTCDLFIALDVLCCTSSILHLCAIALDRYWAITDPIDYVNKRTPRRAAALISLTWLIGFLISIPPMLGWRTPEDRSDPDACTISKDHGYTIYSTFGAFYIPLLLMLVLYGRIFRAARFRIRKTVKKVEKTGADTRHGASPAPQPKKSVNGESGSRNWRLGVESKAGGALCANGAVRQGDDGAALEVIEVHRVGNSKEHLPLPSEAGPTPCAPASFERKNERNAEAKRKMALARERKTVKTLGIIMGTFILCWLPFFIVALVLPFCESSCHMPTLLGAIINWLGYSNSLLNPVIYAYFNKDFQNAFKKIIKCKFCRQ", "assay": "GPCR functional assay: intracellular Ca2+ mobilization in Ba/F3 cells", "format": "cell-based"}, "[2]": {"tested_on": "angiotensin-converting enzyme (ACE)", "design": "method as in PMID 18803227", "conditions": "cited from earlier work"}, "hV1AR": {"molecular_target": "T2, hV1AR (Homo sapiens, UniProt P37288)", "T2 construct": "host or cells: CHO", "T2 sequence (P37288 whole entry)": "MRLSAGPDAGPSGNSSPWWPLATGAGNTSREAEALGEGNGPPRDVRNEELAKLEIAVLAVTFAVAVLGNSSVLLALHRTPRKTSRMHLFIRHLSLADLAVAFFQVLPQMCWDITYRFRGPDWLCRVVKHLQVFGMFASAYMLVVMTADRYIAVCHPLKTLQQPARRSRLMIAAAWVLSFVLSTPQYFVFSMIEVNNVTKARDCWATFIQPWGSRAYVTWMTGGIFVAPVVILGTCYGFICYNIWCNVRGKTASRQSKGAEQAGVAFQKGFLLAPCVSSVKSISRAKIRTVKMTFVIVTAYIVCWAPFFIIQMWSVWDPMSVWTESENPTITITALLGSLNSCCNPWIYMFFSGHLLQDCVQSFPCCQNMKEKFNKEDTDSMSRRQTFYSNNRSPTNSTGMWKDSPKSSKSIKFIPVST", "assay": "GPCR functional assay: intracellular Ca2+ mobilization in transfected CHO cells", "format": "cell-based"}, "C57BL/6 mice [3]": {"tested_on": "C57BL/6 mice", "assay": "Transient forebrain ischemia (BCCAO) mice model, overall effect and tolerability", "format": "in vivo", "description": "as §1, with “[…].” for “Male C57BL/6 mice (22–26 g, 7 weeks) were purchased from the Orient Co. Ltd., a branch of Charles River Laboratories (Seoul, Korea), and kept in the University Animal Care Unit for 1 week prior to the experiments.”\nC57BL/6 mice were anesthetized with 2.0% isoflurane and 70% nitrous oxide in oxygen and subjected to transient forebrain ischemia. The transient forebrain ischemia was induced by bilateral common carotid artery occlusion (BCCAO) with aneurysm clips for 20 min, and the circulation was restored by removing the clips. […] The regional cerebral blood flow (rCBF) was monitored using laser Doppler flowmetry (Perimed, PF5010, JarFalla, Sweden). […]"}, "hD3 receptor": {"molecular_target": "T3, hD3 receptor (Homo sapiens, UniProt P35462)", "T3 construct": "host or cells: CHO", "T3 sequence (P35462 whole entry)": "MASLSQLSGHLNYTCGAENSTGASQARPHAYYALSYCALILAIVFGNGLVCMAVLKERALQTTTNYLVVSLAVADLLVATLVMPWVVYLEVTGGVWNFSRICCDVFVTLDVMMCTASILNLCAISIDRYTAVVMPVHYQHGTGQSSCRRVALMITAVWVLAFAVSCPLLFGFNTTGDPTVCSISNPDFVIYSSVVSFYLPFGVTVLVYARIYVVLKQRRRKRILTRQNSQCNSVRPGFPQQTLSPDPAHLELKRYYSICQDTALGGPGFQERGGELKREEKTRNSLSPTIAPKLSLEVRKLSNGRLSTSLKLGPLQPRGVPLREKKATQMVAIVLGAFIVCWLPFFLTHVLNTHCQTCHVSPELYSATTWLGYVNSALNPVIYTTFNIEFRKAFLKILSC", "assay": "GPCR functional assay: cAMP modulation by HTRF in transfected CHO cells", "format": "cell-based", "conditions": "100 µM test compound"}, "rat": {"tested_on": "rat", "design": "method as in PMID 31547563", "conditions": "cited from earlier work"}, "hNK1R": {"molecular_target": "T4, hNK1R (Homo sapiens, UniProt P25103)", "T4 construct": "Human endogenous (U373MG cells); host or cells: U373MG", "T4 sequence (P25103 whole entry)": "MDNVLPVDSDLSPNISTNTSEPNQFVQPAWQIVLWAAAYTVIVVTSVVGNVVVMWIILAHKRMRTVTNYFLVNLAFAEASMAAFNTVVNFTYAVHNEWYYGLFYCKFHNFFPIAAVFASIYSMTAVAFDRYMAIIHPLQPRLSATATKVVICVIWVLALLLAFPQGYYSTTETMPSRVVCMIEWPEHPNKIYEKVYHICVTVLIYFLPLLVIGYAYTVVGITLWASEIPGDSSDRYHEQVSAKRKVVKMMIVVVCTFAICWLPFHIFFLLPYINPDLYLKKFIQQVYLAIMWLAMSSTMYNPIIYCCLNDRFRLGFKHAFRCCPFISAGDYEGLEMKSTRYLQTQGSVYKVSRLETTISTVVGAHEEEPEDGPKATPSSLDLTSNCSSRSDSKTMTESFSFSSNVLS", "assay": "GPCR functional assay: intracellular Ca2+ mobilization in U373MG cells", "format": "cell-based"}}, "note": "Entries after “also recorded” stand apart in the source; their conditions may differ.", "data": [{"smiles": "COc1c(O)cc2c(c1O)C(=O)c1c(cc(C)c(O)c1OC)C2=O", "note": "[Aurantio-obtusin, 1,3,7-trihydroxy-2,8-dimethoxy-6-methylanthracene-9,10-dione]", "values": [{"measurement": "Latency time in training trial of passive avoidance test", "setting": "C57BL/6 mice [1]; n = 8/group", "result": "no significant differences"}, {"measurement": "Latency time in test trial of passive avoidance test", "setting": "C57BL/6 mice [1]", "result": "significantly attenuated the reduction of latency time"}, {"measurement": "Latency time in test trial of passive avoidance test", "setting": "C57BL/6 mice [1]; listed as aurantio-obtusin", "result": "attenuated the latency time; also recorded: attenuated that reduction significantly"}, {"measurement": "% Stimulation (agonist effect) of control agonist response, 5-HT1A (h)", "setting": "h5-HT1AR; 100 µM test compound, control response to serotonin (2.5 μM)", "result": "−6.10 ± 0.00", "unit": "%"}, {"measurement": "inhibition at 100 µM", "setting": "h5-HT1AR; BaF3, read-out: % Inhibition (antagonist effect) of control agonist response, 5-HT1A (h) (converted)", "result": 10.1, "unit": "%"}, {"measurement": "Inhibition of ACE activity", "setting": "[2]", "result": "no activity"}, {"measurement": "% Stimulation (agonist effect) of control agonist response, V1A (h)", "setting": "hV1AR; 100 µM test compound, control response to 1 μM AVP", "result": "−33.20 ± 2.69", "unit": "%"}, {"measurement": "inhibition at 100 µM", "setting": "hV1AR; CHO, 100 µM test compound, control response to 10 nM AVP, read-out: % Inhibition (antagonist effect) of control agonist response, V1A (h) (converted)", "result": 71.8, "unit": "%"}, {"measurement": "IC50", "setting": "hV1AR; concentrations up to 100 µM, control response to 10 nM AVP, read-out: V1AR antagonist effect IC50", "result": "67.7 ± 2.41", "unit": "µM"}, {"measurement": "Toxicity of treatment alone (sham + drug)", "setting": "C57BL/6 mice [3]; 10 mg/kg, p.o., once daily, compared to sham group", "result": "no toxicity"}, {"measurement": "Effect in BCCAO model, pilot study", "setting": "C57BL/6 mice [3]; 1, 5 and 10 mg/kg tested, result for 10 mg/kg", "result": "effective"}, {"measurement": "% Stimulation (agonist effect) of control agonist response, D3 (h)", "setting": "hD3 receptor; control response to 300 nM dopamine", "result": "33.00 ± 1.84", "unit": "%"}, {"measurement": "inhibition at 100 µM", "setting": "hD3 receptor; CHO, agonist response of 10 nM dopamine, read-out: % Inhibition (antagonist effect) of control agonist response, D3 (h) (converted)", "result": -2.3, "unit": "%"}, {"measurement": "Dose causing hepatoxicity", "setting": "rat", "result": "> 40", "unit": "mg/kg"}, {"measurement": "% Stimulation (agonist effect) of control agonist response, NK1 (h)", "setting": "hNK1R; 100 µM test compound, control response to 30 nM [Sar9, Met(O2)11]-SP", "result": "−6.40 ± 0.00", "unit": "%"}, {"measurement": "inhibition at 100 µM", "setting": "hNK1R; U373 MG, read-out: % Inhibition (antagonist effect) of control agonist response, NK1 (h) (converted)", "result": 47.6, "unit": "%"}]}]}
